Literature values in EP3074407B1, “COMPOUND AND METHOD FOR SELECTIVE RADIOLABELLING OF POLYPEPTIDES BY MEANS OF SOLID-PHASE SYNTHESIS” (Freie Universität Berlin, priority 2013, dated 2015).

Tests used:
[1] = PET, Menschen, Primaten und Nagetieren; cited from earlier work
[2] = literature (Breeman et al. 1996); cited from earlier work

Compound	Aufnahme im Gehirn [1]	Durchlässigkeit der Blut-Hirn-Schranke [2]
FC(F)(F)c1nnnn1-c1ccc(OC[18F])c(CN[C@H]2CCCN[C@H]2c2ccccc2)c1 [18F-SPA-RQ]	hohe Aufnahme	–
[indium111-DTPA-Argl]substance P [In^111 markierten Substanz P-Agonisten]	–	undurchlässig
